# Reference: patent US12677834B2, “Silver silicalite zeolite nanomaterials for reducing Candida auris biofilms” (Imam Abdulrahman Bin Faisal University, priority 2023, dated 2026)
# What was measured:
# [1] = test system: Candida auris biofilm; assay: Biofilm CFU killing assay (96-well microtiter plate, 24 and 48 h); format: cell-based; details: clade 3 (strain CA9), compared to clade 1 and clade 2; AgNO3 0.0250 to 0.0025 mg/mL
# Method: C. auris strains, the clinical isolates, were used to study the effects of the nanomaterial on biofilm formation for 24 and 48 h. All analyses were performed with replicates, and mean values were considered. Initially, culture cells from preserved stock at -80° C. were revived by streaking onto Sabauraud dextrose agar (SDA) plates and incubating overnight at 37° C. From the revived plates, a loopful of the strains was inoculated into SDB and further incubated using an orbital shaker at 130 rpm and 37° C. for 24 and 48 h. The biofilm assay was carried out using the 96-well microtiter plate. The cells harvested from overnight SDB cultures were adjusted to a cell density of 10^7 CFU/mL and diluted. […] Post incubation, plates were manually counted and recorded for the number of cells. Later, the quantity of biofilm formation was determined using a colony-forming unit technique (CFU) and determined as per the following formula: A/B×100 (A is the total number of colonies after treatment and B is the number of cells in control). […] Later, the quantity of biofilm formation was determined using the CFU technique. […] Post incubation, plates were manually counted and recorded for the number of cells. Then, the quantity of biofilm formation was determined using the CFU technique and determined as per the following formula: CFU/mL=(Number of colonies×dilution factor)/volume of plated culture. […]
# [2] = test system: planktonic C. auris; assay: Effect on planktonic C. auris by light microscopy; format: cell-based, Candida auris; details: clade 3 (strain CA9), compared to clade 1 and clade 2; AgNO3 0.0250 to 0.0025 mg/mL
# Method: The antifungal activity of the nanomaterial on planktonic C. auris strains was determined by using light microscopy examination. Briefly, the inoculum was adjusted to a final concentration of 10^6 cells mL^−1. […] Plates were incubated at 37° C. for 48 h. […] The mean value of the duplicates was recorded, and micrographs were taken. One-way ANOVA analysis was carried out to identify the significance.
smiles,measurement,setting,value
"O=[N+]([O-])[O-].[Ag+] [AgNO3, silver nitrate]",inhibitory effect on the biofilm,[1],complete inhibitory effect
same,inhibitory effect on the planktonic cells,[2],complete inhibitory effect
